The record followed here is publication PMC8887546, “Design and Synthesis of Brain Penetrant Glycopeptide Analogues of PACAP With Neuroprotective Potential for Traumatic Brain Injury and Parkinsonism” (Frontiers in drug discovery, 2022).

As usually defined, the EC50 is the concentration that produces a half-maximal response. In general, Emax refers to the greatest response seen or fitted, relative to the assay's reference.

Read-outs that look alike come from different tables or passages of the source.

One test addresses T1, human PAC1 receptor (Homo sapiens, UniProt P41586).
T1 construct: expressed in transfected cells; host or cells: CHO cells (G418 selection)
T1 sequence (P41586 21-468): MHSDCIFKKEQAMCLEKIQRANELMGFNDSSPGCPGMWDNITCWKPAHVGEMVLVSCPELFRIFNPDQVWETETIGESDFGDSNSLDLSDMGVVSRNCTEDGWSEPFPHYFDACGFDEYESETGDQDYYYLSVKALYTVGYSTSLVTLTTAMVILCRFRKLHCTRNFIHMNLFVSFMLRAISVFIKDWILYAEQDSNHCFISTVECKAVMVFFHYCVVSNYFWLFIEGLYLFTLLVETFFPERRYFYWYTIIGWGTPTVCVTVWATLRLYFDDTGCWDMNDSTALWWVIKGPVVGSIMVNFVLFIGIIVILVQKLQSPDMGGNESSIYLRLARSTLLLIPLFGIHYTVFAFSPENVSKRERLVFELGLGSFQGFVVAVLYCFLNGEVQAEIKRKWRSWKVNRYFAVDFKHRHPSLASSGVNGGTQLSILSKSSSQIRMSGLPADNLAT
Briefly: cAMP stimulation in CHO cells expressing PAC1. The test is classed as cell-based. The note with it: for Emax: CHO. Here is the method:
Briefly, human PAC1, VPAC1, and VPAC2 receptors expressed in CHO cells were used for all experiments. Cells were grown in 50:50 DMEM-F12 medium with 10% heat-inactivated fetal bovine serum, 1X penicillin-streptomycin supplement, and 500 μg/ml G418 (neomycin) to maintain selection (all from ThermoFisher) at 37°C with 5% CO2 atmosphere. For the cAMP assay, cells were seeded at 20,000 cells/well in a 96 well plate, recovered overnight, then serum starved for 4 h. The cells were then incubated with 500 μM IBMX for 20 min, followed by agonist concentration curves in 500 μM IBMX media for 10 min. The reaction was terminated, boiled, then collected, followed by competition with 7 μg of bovine protein kinase A (Sigma-Aldrich) and ∼1 pmol of ^3H-cAMP (PerkinElmer). The assay was incubated at room temp for 1 h, then collected onto GF/B filter plates and the data read using a MicroBeta2 scintillation counter (PerkinElmer).

For the next test, the target named is T2, human VPAC1 receptor (Homo sapiens, UniProt P32241).
T2 construct: expressed in transfected cells; host or cells: CHO cells (G418 selection)
T2 sequence (P32241 31-457): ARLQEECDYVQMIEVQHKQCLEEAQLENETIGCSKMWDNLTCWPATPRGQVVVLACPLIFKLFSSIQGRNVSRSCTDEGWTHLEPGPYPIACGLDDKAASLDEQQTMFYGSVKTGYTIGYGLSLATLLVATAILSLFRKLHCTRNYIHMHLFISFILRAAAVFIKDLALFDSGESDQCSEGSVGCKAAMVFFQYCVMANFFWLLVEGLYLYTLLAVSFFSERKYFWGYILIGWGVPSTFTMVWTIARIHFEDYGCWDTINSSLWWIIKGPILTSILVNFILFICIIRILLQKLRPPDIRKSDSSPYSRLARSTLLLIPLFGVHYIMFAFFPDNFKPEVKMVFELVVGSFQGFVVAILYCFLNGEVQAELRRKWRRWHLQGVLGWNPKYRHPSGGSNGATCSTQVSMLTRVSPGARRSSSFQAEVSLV
Nature of the test: cAMP stimulation in CHO cells expressing VPAC1. The format is cell-based.

At human PAC1 receptor, `CC[C@H](C)[C@H](NC(=O)CNC(=O)[C@H](CC(=O)O)NC(=O)[C@H](CO)NC(=O)[C@@H](N)Cc1c[nH]cn1)C(=O)N[C@@H](Cc1ccccc1)C(=O)N[C@H](C(=O)N[C@@H](CC(=O)O)C(=O)N[C@@H](CO)C(=O)N[C@@H](Cc1ccc(O)cc1)C(=O)N[C@@H](CO)C(=O)N[C@@H](CCCNC(=N)N)C(=O)N[C@@H](Cc1ccc(O)cc1)C(=O)N[C@@H](CCCNC(=N)N)C(=O)N[C@@H](CCCCN)C(=O)N[C@@H](CCC(N)=O)C(=O)N[C@@H](CC(C)C)C(=O)N[C@@H](C)C(=O)N[C@H](C(=O)N[C@@H](CCCCN)C(=O)N[C@@H](CCCCN)C(=O)N[C@@H](Cc1ccc(O)cc1)C(=O)N[C@@H](CC(C)C)C(=O)N[C@@H](C)C(=O)N[C@@H](C)C(=O)N[C@H](C(=O)N[C@@H](CC(C)C)C(N)=O)C(C)C)C(C)C)[C@@H](C)O` [2LS72–2] returned an EC50 of 90.7 nM and an Emax of 74.3 ± 9.7%.
On human PAC1 receptor, `CC[C@H](C)[C@H](NC(=O)CNC(=O)[C@H](CC(=O)O)NC(=O)[C@@H](CO)NC(=O)[C@@H](N)Cc1c[nH]cn1)C(=O)N[C@@H](Cc1ccccc1)C(=O)N[C@H](C(=O)N[C@@H](CC(=O)O)C(=O)N[C@@H](CO)C(=O)N[C@@H](Cc1ccc(O)cc1)C(=O)N[C@@H](CO)C(=O)N[C@@H](CCCNC(=N)N)C(=O)N[C@@H](Cc1ccc(O)cc1)C(=O)N[C@@H](CCCNC(=N)N)C(=O)N[C@@H](CCCCN)C(=O)N[C@@H](CCC(N)=O)C(=O)N[C@@H](CC(C)C)C(=O)N[C@@H](C)C(=O)N[C@H](C(=O)N[C@@H](CCCCN)C(=O)N[C@@H](CCCCN)C(=O)N[C@@H](Cc1ccc(O)cc1)C(=O)N[C@@H](CC(C)C)C(=O)N[C@@H](C)C(=O)N[C@@H](C)C(=O)N[C@H](C(=O)N[C@@H](CC(C)C)C(N)=O)C(C)C)C(C)C)[C@@H](C)O` [2LS72–3] gave an EC50 of 48.6 ± 32 nM and an Emax of 95.3 ± 8.1%.
The molecule `CCC[C@H](NC(=O)[C@H](CCC(N)=O)NC(=O)[C@H](CCCCN)NC(=O)[C@H](CCCNC(=N)N)NC(=O)[C@H](Cc1ccc(O)cc1)NC(=O)[C@H](CCCNC(=N)N)NC(=O)[C@H](CO)NC(=O)[C@H](Cc1ccc(O)cc1)NC(=O)[C@H](CO)NC(=O)[C@H](CC(=O)O)NC(=O)[C@H](C)NC(=O)[C@H](Cc1ccccc1)NC(=O)[C@@H](NC(=O)CNC(=O)[C@H](CC(=O)O)NC(=O)[C@@H](CO)NC(=O)[C@@H](N)Cc1c[nH]cn1)[C@@H](C)CC)C(=O)N[C@@H](C)C(=O)N[C@H](C(=O)N[C@@H](CCCCN)C(=O)N[C@@H](CCCCN)C(=O)N[C@@H](Cc1ccc(O)cc1)C(=O)N[C@@H](CC(C)C)C(=O)N[C@@H](C)C(=O)N[C@@H](C)C(=O)N[C@H](C(=O)N[C@@H](CO[C@@H]1O[C@H](CO)[C@@H](O)[C@H](O)[C@H]1O)C(N)=O)C(C)C)C(C)C` [CRA3004] returned an EC50 on human VPAC1 receptor of 1370 nM. Further, on human VPAC1 receptor (CHO, read-out: VPAC1 Emax), the Emax turned out to be 85%.
Turning to `CCC[C@H](NC(=O)[C@H](CCC(N)=O)NC(=O)[C@H](CCCCN)NC(=O)[C@H](CCCNC(=N)N)NC(=O)[C@H](Cc1ccc(O)cc1)NC(=O)[C@H](CCCNC(=N)N)NC(=O)[C@H](CO)NC(=O)[C@H](Cc1ccc(O)cc1)NC(=O)[C@H](CO)NC(=O)[C@H](CC(=O)O)NC(=O)[C@H](C)NC(=O)[C@H](Cc1ccccc1)NC(=O)[C@@H](NC(=O)CNC(=O)[C@H](CC(=O)O)NC(=O)[C@@H](CO)NC(=O)[C@@H](N)Cc1c[nH]cn1)[C@@H](C)CC)C(=O)N[C@@H](C)C(=O)N[C@H](C(=O)N[C@@H](CCCCN)C(=O)N[C@@H](CCCCN)C(=O)N[C@@H](Cc1ccc(O)cc1)C(=O)N[C@@H](CC(C)C)C(=O)N[C@@H](C)C(=O)N[C@@H](C)C(=O)N[C@@H](CO[C@@H]1O[C@H](CO)[C@@H](O)[C@H](O)[C@H]1O)C(=O)N[C@@H](CC(C)C)C(N)=O)C(C)C` [CRA3005], the Emax at human VPAC1 receptor (CHO; read-out: VPAC1 Emax) is 78%. The EC50 on human VPAC1 receptor (read-out: VPAC1 EC50) was 1620 nM.
On to `CCC[C@H](NC(=O)[C@H](CCC(N)=O)NC(=O)[C@H](CCCCN)NC(=O)[C@H](CCCNC(=N)N)NC(=O)[C@H](Cc1ccc(O)cc1)NC(=O)[C@H](CCCNC(=N)N)NC(=O)[C@H](CO)NC(=O)[C@H](Cc1ccc(O)cc1)NC(=O)[C@H](CO)NC(=O)[C@H](CC(=O)O)NC(=O)[C@@H](NC(=O)[C@H](Cc1ccccc1)NC(=O)[C@@H](NC(=O)CCCNC(=O)[C@H](CC(=O)O)NC(=O)[C@@H](CO)NC(=O)[C@@H](N)Cc1c[nH]cn1)[C@@H](C)CC)[C@@H](C)O)C(=O)N[C@@H](C)C(=O)N[C@H](C(=O)N[C@@H](CCCCN)C(=O)N[C@@H](CCCCN)C(=O)N[C@@H](Cc1ccc(O)cc1)C(=O)N[C@@H](CC(C)C)C(=O)N[C@@H](C)C(=O)N[C@@H](C)C(=O)N[C@H](C(=O)N[C@@H](CC(C)C)C(=O)N[C@@H](CO[C@@H]1O[C@H](CO)[C@@H](O)[C@H](O)[C@H]1O)C(N)=O)C(C)C)C(C)C` [CRA3006], for which the Emax on human PAC1 receptor amounted to 78%; on human VPAC1 receptor (CHO; read-out: VPAC1 Emax), 103%.
For the molecule `CCC[C@H](NC(=O)[C@H](CCC(N)=O)NC(=O)[C@H](CCCCN)NC(=O)[C@H](CCCNC(=N)N)NC(=O)[C@H](Cc1ccc(O)cc1)NC(=O)[C@H](CCCNC(=N)N)NC(=O)[C@H](CO)NC(=O)[C@H](Cc1ccc(O)cc1)NC(=O)[C@H](CO)NC(=O)[C@H](CC(=O)O)NC(=O)[C@@H](NC(=O)[C@H](Cc1ccccc1)NC(=O)[C@@H](CCC)NC(=O)CNC(=O)[C@H](CC(=O)O)NC(=O)[C@@H](CO)NC(=O)[C@@H](N)Cc1c[nH]cn1)[C@@H](C)O)C(=O)N[C@@H](C)C(=O)N[C@H](C(=O)N[C@@H](CCCCN)C(=O)N[C@@H](CCCCN)C(=O)N[C@@H](Cc1ccc(O)cc1)C(=O)N[C@@H](CC(C)C)C(=O)N[C@@H](C)C(=O)N[C@@H](C)C(=O)N[C@H](C(=O)N[C@@H](CC(C)C)C(=O)N[C@@H](CO[C@@H]1O[C@H](CO)[C@@H](O)[C@H](O)[C@H]1O)C(N)=O)C(C)C)C(C)C` [CRA3020], the Emax on human PAC1 receptor was determined as 97%; at human VPAC1 receptor (CHO; read-out: VPAC1 Emax), 78%.
At human PAC1 receptor, `CC[C@H](C)[C@H](NC(=O)CNC(=O)[C@H](CC(=O)O)NC(=O)[C@H](CO)NC(=O)[C@@H](N)Cc1c[nH]cn1)C(=O)N[C@@H](Cc1ccccc1)C(=O)N[C@H](C(=O)N[C@@H](CC(=O)O)C(=O)N[C@@H](CO)C(=O)N[C@@H](Cc1ccc(O)cc1)C(=O)N[C@@H](CO)C(=O)N[C@@H](CCCNC(=N)N)C(=O)N[C@@H](Cc1ccc(O)cc1)C(=O)N[C@@H](CCCNC(=N)N)C(=O)N[C@@H](CCCCN)C(=O)N[C@@H](CCC(N)=O)C(=O)N[C@@H](CC(C)C)C(=O)N[C@@H](C)C(=O)N[C@H](C(=O)N[C@@H](CCCCN)C(=O)N[C@@H](CCCCN)C(=O)N[C@@H](Cc1ccc(O)cc1)C(=O)N[C@@H](CC(C)C)C(=O)N[C@@H](C)C(=O)N[C@@H](C)C(=O)N[C@H](C(=O)N[C@@H](CC(C)C)C(=O)N[C@@H](CO[C@@H]1O[C@H](CO)[C@@H](O[C@@H]2O[C@H](CO)[C@H](O)[C@H](O)[C@H]2O)[C@H](O)[C@H]1O)C(N)=O)C(C)C)C(C)C)[C@@H](C)O` [Compound 2LS80Lact] registered an Emax of 144 ± 20.7%.
Turning to PACAP6–38 [reference compound], the “Antagonism of PAC1” value at human PAC1 receptor (cAMP assay in CHO cells) is “unable to demonstrate antagonism”.
